pIC50: −log10 of the molar value.
Experiments:
[1] = test system: pSLP76(S376) level in Jurkat cell line; experiment: Cellular pSLP76(S376) HTRF Assay; assay type: cell-based; conditions: Homo sapiens, Jurkat, Jurkat cells, 2 h compound treatment, stimulated with 0.05 μg/mL anti-human CD3 (OKT3) for 30 min
[2] = target: HPK1 kinase (aal-346. Life Technologies) (Homo sapiens (Human), UniProt Q92918); experiment: HPK Kinase Activity Assay at 1 mM ATP (TR-FRET); assay type: biochemical; conditions: HPK1 kinase 40 nM, 0.5 μM STK1 substrate, read-out: Enzymatic activity IC50
Sequence of HPK1 kinase (aal-346. Life Technologies) (Q92918 1-346): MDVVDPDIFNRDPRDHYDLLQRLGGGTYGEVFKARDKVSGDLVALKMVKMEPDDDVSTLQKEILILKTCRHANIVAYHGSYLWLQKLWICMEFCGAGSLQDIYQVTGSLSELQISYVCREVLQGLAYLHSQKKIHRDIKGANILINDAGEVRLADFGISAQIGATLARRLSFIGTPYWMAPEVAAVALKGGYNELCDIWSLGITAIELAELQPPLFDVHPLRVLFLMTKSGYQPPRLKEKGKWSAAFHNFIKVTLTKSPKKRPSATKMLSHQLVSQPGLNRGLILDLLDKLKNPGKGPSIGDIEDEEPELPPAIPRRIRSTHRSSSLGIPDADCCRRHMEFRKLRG

Row | SMILES | pIC50 [1] | pIC50 [2]
1 | CC(=O)NCc1c(C)cc(-c2cnc(N)c(Oc3cnn(C4CCN(C)CC4)c3)n2)cc1C [Example A45, N-(4-(5-amino-6-((1-(1-methylpiperidin-4-yl)-1H-pyrazol-4-yl)oxy)pyrazin-2-yl)-2,6-dimethylbenzyl)acetamide] | 6.92 | 7.29
2 | COC[C@@H]1COCCN1c1cc(-c2cnc(N)c(Oc3cnn(C4CCN(C)CC4)c3)n2)cc(C2(O)COC2)c1 [Example A76, (R)-3-(3-(5-amino-6-((1-(1-methylpiperidin-4-yl)-1H-pyrazol-4-yl)oxy)pyrazin-2-yl)-5-(3-(methoxymethyl)morpholino)phenyl)oxetan-3-ol] | 7.21 | 8.24
3 | Cc1cc(-c2cnc(N)c(Oc3cnn(C4CCN(C)CC4)c3)n2)ccc1CNS(C)(=O)=O [Example A46, N-(4-(5-amino-6-((1-(1-methylpiperidin-4-yl)-1H-pyrazol-4-yl)oxy)pyrazin-2-yl)-2-methylbenzyl)methanesulfonamide] | 7.01 | 7.29
4 | Cc1cc(-c2cnc(N)c(Oc3cnn(C4CCN(C)CC4)c3)n2)cc([C@@]2(O)CCOC2)c1N1CCOCC1 [Example A97A, (S)-3-(5-(5-amino-6-((1-(1-methylpiperidin-4-yl)-1H-pyrazol-4-yl)oxy)pyrazin-2-yl)-3-methyl-2-morpholinophenyl)tetrahydrofuran-3-ol] | 7.11 | 7.74
5 | Cc1cc(-c2cnc(N)c(Oc3cnn(C4CCN(C)CC4)c3)n2)cc(C2(O)CCOCC2)c1 [Example A58, 4-(3-(5-amino-6-((1-(1-methylpiperidin-4-yl)-1H-pyrazol-4-yl)oxy)pyrazin-2-yl)-5-methylphenyl)tetrahydro-2H-pyran-4-ol] | 7.16 | 7.54
6 | Cc1cc(-c2cnc(N)c(Oc3cnn(C4CCN(C)CC4)c3)n2)cc(C2(NS(=O)(=O)CC(F)(F)F)CC2)c1 [Example A25, N-(l-(3-(5-amino-6-((1-(1-methylpiperidin-4-yl)-H-pyrazol-4-yl)oxy)pyrazin-2-yl)-5-methylphenyl)cyclopropyl)-2,2,2-trifluoroethane-1-sulfonamide] | 7.21 | 7.85
7 | CNC(=O)c1c(C)cc(-c2cnc(N)c(Oc3cnn(C4CCN(C)CC4)c3)n2)cc1C [Example A3, 4-(5-amino-6-(1-(1-methylpiperidin-4-yl)-1H-pyrazol-4-yloxy)pyrazin-2-yl)-N,2,6-trimethylbenzamide] | 6.82 | 6.96
8 | Cc1cc(-c2cnc(N)c(Oc3cnn(C4CCN(C)CC4)c3)n2)cc(C2(O)CCOC2)c1N1CC2(CCOCC2)C1 (centres unmarked) [Example A92, 3-(5-(5-amino-6-((1-(1-methylpiperidin-4-yl)-1H-pyrazol-4-yl)oxy)pyrazin-2-yl)-3-methyl-2-(7-oxa-2-azaspiro[3.5]nonan-2-yl)phenyl)tetrahydrofuran-3-ol] | 6.81 | 8.15
9 | Cc1cc(-c2cnc(N)c(Oc3cnn(C4CCN(C)CC4)c3)n2)cc(C)c1C(=O)NCCN1CCCCC1 [Example A5, 4-(5-amino-6-(1-(1-methylpiperidin-4-yl)-1H-pyrazol-4-yloxy)pyrazin-2-yl)-2,6-dimethyl-N-(2-(piperidin-1-yl)ethyl)benzamide] | 7.15 | 7.46
10 | CNS(=O)(=O)c1cc(-c2cnc(N)c(Oc3cnn(C4CCN(C)CC4)c3)n2)cc(F)c1C [Example A18, 5-(5-amino-6-((1-(1-methylpiperidin-4-yl)-1H-pyrazol-4-yl)oxy)pyrazin-2-yl)-3-fluoro-N,2-dimethylbenzenesulfonamide] | 7.33 | 7.00
11 | CNC(=O)NCc1c(C)cc(-c2cnc(N)c(Oc3cnn(C4CCN(C)CC4)c3)n2)cc1C [Example A26, 1-(4-(5-amino-6-((1-(1-methylpiperidin-4-yl)-1H-pyrazol-4-yl)oxy)pyrazin-2-yl)-2,6-dimethylbenzyl)-3-methylurea] | 7.09 | 7.52
12 | C[C@@H]1COCCN1c1cc(-c2cnc(N)c(Oc3cnn(C4CCN(C)CC4)c3)n2)cc(C2(O)CCCOC2)c1 (stereo partly drawn) [Example A89, 3-(3-(5-amino-6-((1-(1-methylpiperidin-4-yl)-1H-pyrazol-4-yl)oxy)pyrazin-2-yl)-5-((R)-3-methylmorpholino)phenyl)tetrahydro-2H-pyran-3-ol] | 7.19 | 7.96
13 | Cc1cc(-c2cnc(N)c(Oc3cnn(C4CCN(C)CC4)c3)n2)cc(C)c1CNS(=O)(=O)C1CCOCC1 [Example A31, N-(4-(5-amino-6-((1-(1-methylpiperidin-4-yl)-1H-pyrazol-4-yl)oxy)pyrazin-2-yl)-2,6-dimethylbenzyl)tetrahydro-2H-pyran-4-sulfonamide] | 7.11 | 7.47
14 | Cc1cc(-c2cnc(N)c(Oc3cnn(C4CCN(C)CC4)c3)n2)cc(C)c1N1CC2(COC2)C1 [Example A77, 5-(3,5-dimethyl-4-(2-oxa-6-azaspiro[3.3]heptan-6-yl)phenyl)-3-((1-(1-methylpiperidin-4-yl)-1H-pyrazol-4-yl)oxy)pyrazin-2-amine] | 7.04 | 7.42
15 | Cc1cc(-c2cnc(N)c(Oc3cnn(C4CCN(C)CC4)c3)n2)cc(C)c1CNc1ncn(C)n1 [Example A68, 5-(3,5-dimethyl-4-(((1-methyl-1H-1,2,4-triazol-3-yl)amino)methyl)phenyl)-3-((1-(1-methylpiperidin-4-yl)-1H-pyrazol-4-yl)oxy)pyrazin-2-amine] | 6.80 | 7.29
16 | Cc1cc(-c2cnc(N)c(Oc3cnn(C4CCN(C)CC4)c3)n2)cc([C@]2(O)CCOC2)c1N1CCOCC1 [Example A97B, (R)-3-(5-(5-amino-6-((1-(1-methylpiperidin-4-yl)-1H-pyrazol-4-yl)oxy)pyrazin-2-yl)-3-methyl-2-morpholinophenyl)tetrahydrofuran-3-ol] | 6.81 | 7.52
17 | C[C@@H]1COCCN1c1cc(-c2cnc(N)c(Oc3cnn(C4CCN(C)CC4)c3)n2)cc(C2(O)COC2)n1 [Example B4, (R)-3-(4-(5-amino-6-(1-(1-methylpiperidin-4-yl)-1H-pyrazol-4-yloxy)pyrazin-2-yl)-6-(3-methylmorpholino)pyridin-2-yl)oxetan-3-ol] | 6.99 | 7.51
18 | COc1ccc(S(=O)(=O)NCc2c(C)cc(-c3cnc(N)c(Oc4cnn(C5CCN(C)CC5)c4)n3)cc2C)cc1 [Example A39, N-(4-(5-amino-6-((1-(1-methylpiperidin-4-yl)-1H-pyrazol-4-yl)oxy)pyrazin-2-yl)-2,6-dimethylbenzyl)-4-methoxybenzenesulfonamide] | 6.75 | 7.46
19 | CC#Cc1c(C)cc(-c2cnc(N)c(Oc3cnn(C4CCN(C)CC4)c3)n2)cc1C1(O)COC1 [Example A81, 3-(5-(5-amino-6-((1-(1-methylpiperidin-4-yl)-1H-pyrazol-4-yl)oxy)pyrazin-2-yl)-3-methyl-2-(prop-1-yn-1-yl)phenyl)oxetan-3-ol] | 7.14 | 7.43
20 | C[C@@H]1COCCN1c1cc(-c2cnc(N)c(Oc3cnn(C4CCN(C)CC4)c3)n2)cc(C2(O)CCCOC2)c1 (single isomer, unassigned) [Example A90B] | 7.00 | 8.15
21 | Cc1cc(-c2cnc(N)c(Oc3cnn(C4CCN(C)CC4)c3)n2)cc(C)c1CNC1(C)COC1 [Example A60, 5-(3,5-dimethyl-4-(((3-methyloxetan-3-yl)amino)methyl)phenyl)-3-((1-(1-methylpiperidin-4-yl)-1H-pyrazol-4-yl)oxy)pyrazin-2-amine] | 7.04 | 7.40
22 | CN1CCC(n2cc(Oc3nc(-c4cc(N5CCOCC5)cc(C5(O)COC5)c4)cnc3N)cn2)CC1 [Example A72, 3-(3-(5-amino-6-((1-(1-methylpiperidin-4-yl)-1H-pyrazol-4-yl)oxy)pyrazin-2-yl)-5-morpholinophenyl)oxetan-3-ol] | 7.23 | 8.25
23 | Cc1cc(-c2cnc(N)c(Oc3cnn(C4CCN(C)CC4)c3)n2)cc([C@]2(O)CCOC2)c1 [Example A74B, (R)-3-(3-(5-amino-6-((1-(1-methylpiperidin-4-yl)-1H-pyrazol-4-yl)oxy)pyrazin-2-yl)-5-methylphenyl)tetrahydrofuran-3-ol] | 7.39 | 8.00
24 | Cc1cc(-c2cnc(N)c(Oc3cnn(C4CCN(C)CC4)c3)n2)cc(C)c1CNS(=O)(=O)N(C)C [Example A62, 5-(4-[[(dimethylsulfamoyl)amino]methyl]-3,5-dimethylphenyl)-3-[[1-(1-methylpiperidin-4-yl)pyrazol-4-yl]oxy]pyrazin-2-amine] | 7.10 | 7.32
25 | Cc1cc(-c2cnc(N)c(Oc3cnn(C4CCN(C)CC4)c3)n2)cc(C)c1CNS(=O)(=O)C1CC1 [Example A32, N-(4-(5-amino-6-((1-(1-methylpiperidin-4-yl)-1H-pyrazol-4-yl)oxy)pyrazin-2-yl)-2,6-dimethylbenzyl)cyclopropanesulfonamide] | 7.09 | 7.52
26 | CNS(=O)(=O)c1cc(-c2cnc(N)c(Oc3cnn(C4CCN(C)CC4)c3)n2)cc(N2CCCC2)c1 [Example A23, 3-(5-amino-6-((1-(1-methylpiperidin-4-yl)-1H-pyrazol-4-yl)oxy)pyrazin-2-yl)-N-methyl-5-(pyrrolidin-1-yl)benzenesulfonamide] | 7.46 | 8.22
27 | Cc1cc(-c2cnc(N)c(Oc3cnn(C4CCN(C)CC4)c3)n2)cc(C)c1CNc1ccn(C)n1 [Example A56, 5-(3,5-dimethyl-4-(((1-methyl-1H-pyrazol-3-yl)amino)methyl)phenyl)-3-((1-(1-methylpiperidin-4-yl)-1H-pyrazol-4-yl)oxy)pyrazin-2-amine] | 7.07 | 7.28
28 | CNC(=O)NCc1ccc(-c2cnc(N)c(Oc3cnn(C4CCN(C)CC4)c3)n2)cc1C [Example A47, 1-(4-(5-amino-6-((1-(1-methylpiperidin-4-yl)-1H-pyrazol-4-yl)oxy)pyrazin-2-yl)-2-methylbenzyl)-3-methylurea] | 6.74 | 7.17

— patent US20240317714A1, “3-[(1H-PYRAZOL-R-YL)OXY]PYRAZIN-2-AMINE COMPOUNDS AS HPK1 INHIBITOR AND USE THEREOF” (BeiGene, Ltd., priority 2020, published 2024)
